Entries after “also recorded” stand apart in the source; their conditions may differ.
Legend:
[1] = biological target: T1, HLADR2 (DRB1*1501) (Homo sapiens, UniProt P01903+P01911); test: HLA-DR2-restricted T-cell response (08073 T-cells, MGAR cells) after catalysed loading; format: cell-based; conditions: MBP86-100, 08073 T-cells
T1 construct: endogenous in cells; host or cells: MGAR cells
Experimental: (§1) For evaluation, dose-activity curves of a HLA-DR4-restricted (FIG. 4, left-hand panel) and a HLA-DR2-restricted T-cell response (FIG. 4, right-hand panel) were prepared.

[2] = biological target: HLA-DR2 (DRB1*1501; β86V) wild-type molecule (Homo sapiens, UniProt P01903+P01911); test: Catalysis of peptide binding to HLA-DR2 wild-type molecule on fibroblast cells
Experimental: The test was carried out as described under Comparison Test 3.3.

[3] = biological target: T2, soluble HLA-DR1 (DRA1*0101, DRB1*0101) (Homo sapiens, UniProt P01903+P01911, A100R/D57E/F55L/F60I/F76Y/I96L/L162R/M171V/P40L/Q125E/R42F/V115G/Y59C); test: Loading of empty soluble HLA-DR1 with biotinylated HA306-318 peptide, sandwich ELISA; format: biochemical
T2 construct: shortened α- and […]-chains without the cytoplasmatic and transmembrane portion of the MHC molecule; made in house; host or cells: S2 insect cells
Experimental: In order to monitor catalysis of the loading of HLA-DR molecules by compounds of formulae I, IA, II, III and IV1 to IV3, empty, soluble DR molecules were incubated with biotinylated, high-affinity peptide, and these were then detected in a sandwich ELISA for the MHC complexes.
All the batches were then adjusted to a final volume of 10 μl with 2% BSA-PO4^3− buffer (in the case of HLA-DR1 only with PO4^3− buffer). The reaction was started by incubation at 37° C. in a thermocycler. After 40 minutes, the incubation was terminated and the loading reaction was stopped by storage on ice and addition of 50 μl of ice-cold 1% BSA-PBS.
The detection of bound peptide was carried out by means of a sandwich ELISA. […] Between these steps, the plate was washed twice with PBS-0.05% Tween with the aid of a PW plate-washing device (Tecan Industries) and, before filling with fresh solution, all remaining liquid residues were removed by tapping on Scott®Natura paper towels (Hakle-Kimberly Deutschland GmbH). After blocking of non-specific binding sites, the plate was washed three times and filled with 50 μl/well of 1% BSA-PBS. 2×25 μl per reaction batch were transferred to the plate as double values and were carefully mixed thereon (total volume per well: 75 μl). From each filled series, a further 25 μl/well were then again titrated on the plate in a series of two-stage dilutions (final volume per well: 50 μl). The plates so filled were then stored for 2 hours at 4° C. under stationary conditions. Each plate was then washed six times as described above and filled with 80 μl/well of Eu^3+-streptavidin staining solution (europium-streptavidin stock solution diluted 1:10,000 with 1% BSA-PBS) and incubated for 30 minutes at room temperature (RT). After washing for a further eight times, 100 μl/well of fluorescence-activated solution (enhancer) were then added and the signal was measured by means of a Victor^2-multilabelcounter (Wallac Oy) at an excitation wavelength of 340 nm and an emission wavelength of 615 nm in time-resolving mode.
The following experiment was therefore carried out. One catalyst in a fixed concentration of 0.05 mM was introduced into each of a number of batches for loading HLA-DR1 with HA-biot. The same concentration of a second catalyst was then added to each batch. As controls, 1×1% DMSO was added and, as negative control, a reaction mixture was prepared with 2×1% DMSO. The reaction mixtures were then incubated for 40 minutes as already described and the load was measured in a sandwich ELISA.
The resulting load was then determined in an ELISA using biotinylated peptide (see FIG. 1).
The amount of peptide/MHC complexes formed within this time was then determined by means of an ELISA assay (capture antibody: anti-HLA-DR; detection: fluorescent-labelled streptavidin). The activities of the individual compounds were grouped on the basis of the dose/activity curves obtained thereby.

[4] = test system: DCs from HLA-DR1 (DRB1*0101)-transgenic mice; test: Loading of dendritic cells with HA306-318 and DC-mediated T-cell response; format: cell-based
Experimental: Dendritic cells ([…]) are one of the most important sub-groups of “professional” antigen-presenting cells. Therefore, in the present example, DCs from HLA-DR1 (DRB1*0101)-transgenic mice were used, the DCs being loaded for 4 hours with biotinylated HA306-318 peptide. Then, in order to determine the peptide load, the cells were stained with streptavidin-APC (SA-APC) and also with anti-HLA-DR and analysed by continuous-flow cytometry (FIG. 14A).

[5] = biological target: T3, HLA-DR1 (DRB1*0101) (Homo sapiens, UniProt P01903+P01911, A100R/D57E/F55L/F60I/F76Y/I96L/L162R/M171V/P40L/Q125E/R42F/V115G/Y59C); test: HLA-DR1-restricted T-cell response after catalysed loading of 721.221 cells (EvHA/X5, hCII19.3 T-cells); format: cell-based; conditions: HA306-318 (EvHA/X5) or CO260-273 (hCII19.3) loaded onto 721.221 cells
T3 construct: HLA-DR-expressing 721.221 cells; endogenous in cells; host or cells: 721.221 cells
From the text: In the present comparison test, the enhancement of the T-cell response by catalysis of the loading of HLA-expressing cells was investigated. […] Either HA306-318 (see also FIG. 3, left-hand panel) or CO260-273 (see also FIG. 3, right-hand panel) was used as peptide antigen. After the loading, the cells were washed and used to stimulate EvHA/X5 and hCII19.3 cells, respectively.
In order to investigate the catalysis of a HLA-DR1 (DRB1*0101)-restricted T-cell response by various catalytically active adamantyl compounds, dose-activity curves of the catalysis of a HLA-DR1 (DRB1*0101)-restricted T-cell response were prepared. The experiment was carried out analogously to Comparison Experiment 3.3, the peptide antigen HA306-318 being loaded onto 721.221 cells in order thereby to stimulate EvHA/X5 T-cells. […] Because the position of the dose-activity curves is evidently also determined by the side chain, a modulating activity can be attributed thereto.

[6] = test system: H2-E^k; test: T-cell assay on mouse MHC class II molecule H2-E; format: cell-based; conditions: T-cell assays
Experimental: (§2) In the following, the catalysis of HLA loading by pCP was determined for the purposes of comparison. […] These dose-activity curves show the activity of the two catalysts on HLA-DR molecules with a deep or flat P1 pocket {β86G and β86V} as well as on the mouse MHC class II molecules H2-Ek and H2-Ak.

[7] = biological target: HLA-DR4 (DRB1*0401) (Homo sapiens, UniProt P01903+P01911, A100K/A169T/F76Y/I96L/K127E/L162R/M171V/N62H/P40V/Q125Y/R42H/S133A/S149N/S66Y/V115G/V209L/W38E); conditions: HA306-318, 8475/94 T-cells
Experimental: as §1

[8] = biological target: H2-A^k (Mus musculus, UniProt P01910+P06343); test: T-cell assay on mouse MHC class II molecule H2-A; format: cell-based; conditions: T-cell assays
H2-A^k, sequence (P01910 24-256): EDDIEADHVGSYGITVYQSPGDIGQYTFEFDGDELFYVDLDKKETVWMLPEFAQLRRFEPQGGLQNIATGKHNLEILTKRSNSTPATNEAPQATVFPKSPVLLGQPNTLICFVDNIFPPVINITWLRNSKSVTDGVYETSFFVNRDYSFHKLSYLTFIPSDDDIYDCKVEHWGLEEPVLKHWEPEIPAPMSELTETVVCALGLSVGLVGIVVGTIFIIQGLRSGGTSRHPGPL
H2-A^k, sequence (P06343 28-263): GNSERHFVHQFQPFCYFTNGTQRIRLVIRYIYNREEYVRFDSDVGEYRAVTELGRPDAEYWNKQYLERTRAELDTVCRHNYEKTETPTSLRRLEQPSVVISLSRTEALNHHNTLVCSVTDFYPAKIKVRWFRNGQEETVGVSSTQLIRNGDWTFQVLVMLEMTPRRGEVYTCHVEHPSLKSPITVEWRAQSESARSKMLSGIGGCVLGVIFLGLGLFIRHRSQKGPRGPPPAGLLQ
Experimental: as §2

[9] = test system: HLA-DR molecules with a deep or flat P1 pocket (β86G and β86V); test: T-cell assays on HLA-DR molecules with a deep or flat P1 pocket; format: cell-based, human; conditions: dose-activity curves
Experimental: as §2

SMILES | HLA-DR2-restricted T-cell response [1] | catalysis of the binding of MBP86-100 to HLA-DR2 wild-type molecule [2] | catalytic activity in the ELISA [3] | HA306-318 peptide concentration that triggers the T-cell response reached at 100 ng/ml without catalyst ([4]; 250 μM catalyst) | peptide signal on the surface of the DCs ([4]; 250 μM, 4 hours, biotinylated HA306-318) | strength of T-cell responses vs DCs loaded without catalyst ([4]; DCs loaded with antigen in the presence of catalyst) | immune response of HLA-DR1-restricted T-cells [5] | effect on H2-E molecules [6] | HLA-DR4-restricted T-cell response [7] | effect on H2-A molecules [8] | activity on HLA-DR molecules with deep or flat P1 pocket [9]
OCCC12CC3CC(CC(C3)C1)C2 [I 1, 2-(1-adamantyl)-ethanol] | unable to effect catalysis | unable to effect catalysis | substantially greater catalytic activity | less than 10 ng/ml | markedly stronger peptide signal | up to 15 times | markedly enhanced | – | – | – | –
Oc1ccc(Cl)cc1 [pCP, p-chlorophenol] | enhancing effect on all the HLA-DR molecules investigated | – | – | – | – | – | – | no effect | enhancing effect on all the HLA-DR molecules investigated | no effect | no dependence on the […]86 dimorphism; also recorded: independent of the depth of the P1 pocket
